In ChEMBL document CHEMBL2311374, “Anti-angiogenesis and immunomodulatory activities of an anti-tumor sesquiterpene bigelovin isolated from Inula helianthus-aquatica” (Eur J Med Chem, 2013):
Activity calls are given as the source filed them. The calls are words filed in the database; no cut-off is given here.

What was measured:
HMEC-1 [1] = test: Effect on cell adhesion gene expression in TNFalpha stimulated HMEC1 cells assessed as reduction in VCAM1 mRNA level at 1000 or 3000 nM measured after 12 hrs by real-time PCR analysis; format: functional, Homo sapiens; parameters: scale not given: the % may be the effect or the level left
HMEC-1 [2] = test: Inhibition of HMEC1 cells growth measured after 48 hrs; format: functional, cell-based; conditions: Homo sapiens, HMEC-1, 48 h
HMEC-1 [3] = test: Effect on cell adhesion gene expression in TNFalpha stimulated HMEC1 cells assessed as reduction in ICAM1 protern expression at 1000 or 3000 nM measured after 24 hrs by Western blotting; format: functional, cell-based; conditions: Homo sapiens
PBMC [4] = test: Immunomodulatory effect in phytohemagglutininin-activated human PBMC assessed as inhibition of INFgamma production measured after 24 hrs by ELISA; format: functional, cell-based
HMEC-1 [5] = test: Inhibition of cell proliferation of HMEC1 cells assessed as [methyl-3H] thymidine incorporation measured after 48 hrs; format: functional, cell-based; conditions: Homo sapiens
Danio rerio [6] = organism: Danio rerio; test: Anti-angiogenic activity in transgenic zebrafish Tg(fli1a:EGFP)y1 1 to 4 cell stage embryo assessed as down-regulation of Ang-2 angiogenic gene expression measured after 24 hrs by real-time PCR analysis; format: functional
Danio rerio [7] = organism: Danio rerio; test: Anti-angiogenic activity in transgenic zebrafish Tg(fli1a:EGFP)y1 1 to 4 cell stage embryo assessed as inhibition of subintestinal vessels formation measured after 48 hrs by fluorescent microscopy; format: functional, tissue-based
Danio rerio [8] = organism: Danio rerio; test: Anti-angiogenic activity in transgenic zebrafish Tg(fli1a:EGFP)y1 1 to 4 cell stage embryo assessed as complete inhibition of subintestinal vessels formation measured at 100 uM after 48 hrs by fluorescent microscopy; format: functional, tissue-based
HMEC-1 [9] = test: Effect on cell adhesion gene expression in TNFalpha stimulated HMEC1 cells assessed as reduction in E-selectin mRNA level at 1000 or 3000 nM measured after 12 hrs by real-time PCR analysis; format: functional, Homo sapiens; parameters: scale not given: the % may be the effect or the level left
PBMC [10] = test: Cytotoxicity against human PBMC at 62.5 to 250 nM for 72 hrs by XTT assay; format: cell-based; conditions: 0.25 µM
HMEC-1 [11] = test: Effect on cell adhesion gene expression in TNFalpha stimulated HMEC1 cells assessed as reduction in ICAM1 mRNA level at 1000 or 3000 nM measured after 12 hrs by real-time PCR analysis; format: functional, Homo sapiens; parameters: scale not given: the % may be the effect or the level left
Danio rerio [12] = organism: Danio rerio; test: Anti-angiogenic activity in transgenic zebrafish Tg(fli1a:EGFP)y1 1 to 4 cell stage embryo assessed as inhibition of subintestinal vessel length measured at 25 to 100 uM after 48 hrs by fluorescent microscopy; format: functional, tissue-based
[13] = Cytotoxicity against human HMEC1 cells at 1000 or 3000 nM measured after 12 hrs by MTT assay; format: cell-based; conditions: hmec-1, 12 h
HMEC-1 [14] = test: Inhibition of HMEC1 cells growth measured after 48 hrs by MTT assay; format: functional, cell-based; conditions: Homo sapiens, HMEC-1, 48 h
[15] = Cytotoxicity against human HMEC1 cells; format: cell-based; conditions: hmec-1
HMEC-1 [16] = test: Effect on cell adhesion gene expression in TNFalpha stimulated HMEC1 cells assessed as reduction in VCAM1 protern expression at 1000 or 3000 nM measured after 24 hrs by Western blotting; format: functional, cell-based; conditions: Homo sapiens
PBMC [17] = test: Immunomodulatory effect in phytohemagglutininin-activated human PBMC assessed as inhibition of TNFalpha production measured after 24 hrs by ELISA; format: functional, cell-based
HMEC-1 [18] = test: Effect on cell adhesion gene expression in TNFalpha stimulated HMEC1 cells assessed as reduction in E-selectin protern expression at 1000 or 3000 nM measured after 24 hrs by Western blotting; format: functional, cell-based; conditions: Homo sapiens
HMEC-1 [19] = test: Antimigratory activity against HMEC1 cells assessed as decrease in cell motility measured after 24 hrs by scratch wound assay; format: functional, cell-based; conditions: Homo sapiens
PBMC [20] = test: Immunomodulatory effect in phytohemagglutininin-activated human PBMC assessed as inhibition of IL2 production measured after 24 hrs by ELISA; format: functional, cell-based
Danio rerio [21] = organism: Danio rerio; test: Anti-angiogenic activity in transgenic zebrafish Tg(fli1a:EGFP)y1 1 to 4 cell stage embryo assessed as down-regulation of Ang-1 angiogenic gene expression measured after 24 hrs by real-time PCR analysis; format: functional
Danio rerio [22] = organism: Danio rerio; test: Anti-angiogenic activity in transgenic zebrafish Tg(fli1a:EGFP)y1 1 to 4 cell stage embryo assessed as down-regulation of Tie-2 angiogenic gene expression measured after 24 hrs by real-time PCR analysis; format: functional
PBMC [23] = test: Immunomodulatory effect in phytohemagglutininin-activated human PBMC assessed as inhibition of IL12 production measured after 24 hrs by ELISA; format: functional, cell-based
PBMC [24] = test: Immunomodulatory effect in phytohemagglutininin-activated human PBMC assessed as stimulation of cell proliferation at 62.5 to 250 nM measured after 72 hrs; format: functional, cell-based
Danio rerio [25] = organism: Danio rerio; test: Anti-angiogenic activity in transgenic zebrafish Tg(fli1a:EGFP)y1 1 to 4 cell stage embryo assessed as down-regulation of Tie-1 angiogenic gene expression measured after 24 hrs by real-time PCR analysis; format: functional

For `C=C1C(=O)O[C@H]2C[C@@H](C)[C@@H]3C=CC(=O)[C@@]3(C)[C@@H](OC(C)=O)[C@H]12` [BIGELOVIN], the Activity (HMEC-1 [1]) was 74%, the IC50 (HMEC-1 [2]) was 946 nM and the Activity (HMEC-1 [3]) was “Active”. The inhibition (PBMC [4]) was “Dose-dependent effect”, the inhibition (HMEC-1 [5]) was “Dose-dependent effect” and the inhibition (Danio rerio [6]) was “Active”. For the same molecule, the inhibition (Danio rerio [7]) was “Dose-dependent effect”, the inhibition (Danio rerio [8]) was “Active” and the Activity (HMEC-1 [9]) was 67%. The Activity (PBMC [10]) was “Non-toxic”, the Activity (HMEC-1 [11]) was 76% and the inhibition (HMEC-1 [11]; Homo sapiens) was “Dose-dependent effect”. The inhibition (Danio rerio [12]) was “Active”, the Activity [13] was “Non-toxic” and the IC50 (HMEC-1 [14]) was 2680 nM. For the same molecule, the Activity [15] was “Non-toxic”, the “inhibition (INH)” value [15] was “Dose-dependent effect” and the Activity (HMEC-1 [16]) was “Active”. For the same molecule, the inhibition (PBMC [17]) was “Dose-dependent effect”, the Activity (HMEC-1 [18]) was “Active” and the inhibition (HMEC-1 [19]) was “Dose-dependent effect”. The inhibition (PBMC [20]) was “Dose-dependent effect”, the inhibition (Danio rerio [21]) was “Active” and the inhibition (Danio rerio [22]) was “Active”. For the same molecule, the inhibition (PBMC [23]) was “Dose-dependent effect”, the Activity (PBMC [24]) was “Active” and the inhibition (Danio rerio [25]) was “inactive”.
